From patent US20240246934A1, “QUINAZOLINE-BASED COMPOUND, COMPOSITION, AND APPLICATION OF QUINAZOLINE-BASED COMPOUND” (BEIJING SCITECH-MQ PHARMACEUTICALS LIMITED, priority 2021, published 2024) come the findings set out here.

The test system of one experiment is BT474 cells. The experiment is described as follows: Inhibition of cell proliferation, CTG method, BT474. The note with it: Homo sapiens, BT-474, 72 hours, read-out: hBT474 IC50. It counts as cell-based. An excerpt: (§1) The present application examined the in vitro anti-proliferative activity of the compounds of the present disclosure against in vitro cultured BT474, NCI-N87, Ba/F3-EGFR-VIII and Ba/F3 HER2 A775_G776insYVMA and Ba/F3 EGFR D770_N771insSVD cell lines by CTG method.
(§2) Reagents and consumables: RPMI1640 (ThermoFisher, Cat. No. C11875500BT); fetal bovine serum (Hyclone, Cat. No. SV30087.03); 0.25% trypsin-EDTA (ThermoFisher, Cat. No. 25200-072); penicillin-streptomycin (Hyclone, Cat. No. SV30010); DMSO (Amresco, Cat. No. 0231-500ML); CTG assay kit (Promega, Cat. No. G924C); 96-well plate (Corning, Cat. No. 3603); multifunctional plate reader (Perkin Elmer, Cat. No. Envision)
(§3) Cell lines: BT474 (from the cell bank of Chinese Academy of Sciences), NCI-N87 (from ATCC), Ba/F3-EGFR-VIII, Ba/F3 HER2 A775_G776insYVMA and Ba/F3 EGFR D770_N771insSVD (all from KYinno Biotechnology (Beijing) Co., Ltd.); all of the above cells were cultured with RPMI1640 medium containing 10% fetal bovine serum, 100 U/mL penicillin, and 100 μg/mL streptomycin in the culture process.
1. […]
(§4) 4. The cells were cultured for another 72 hours, and then cell viability was detected by CTG assay kit. Signal values were read with a multifunctional plate reader (Perkin Elmer). GraphPad Prism software was used to create a dose-response curve and IC50 was calculated.

A further experiment addresses T1, HER2 kinase (Homo sapiens, UniProt P04626).
T1 construct: purchased Carna Biosciences 08-016
The experiment in a line: HER2 kinase assay (ULight/PT66 TR-FRET). It counts as biochemical. In outline:
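HER2 kinase preincubated 5 min with compounds (11-point 3-fold series, duplicates), then reacted 120 min at room temperature with ATP and ULight-poly GT peptide, each prepared at 4× working concentration (40 μM ATP, 400 nM substrate, 40 nM kinase). PT66 antibody added for 60 min, TR-FRET read; IC50 from inhibition curves.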
For orientation: In TR-FRET formats the signal depends on donor and acceptor labels being close together.

Experiment [1] concerns the target Ba/F3 HER2 A775_G776insYVMA cells (Homo sapiens, UniProt P04626, DUP772-775, cells depend on it). The experiment is described as follows: Inhibition of cell proliferation, CTG method, Ba/F3 HER2 A775_G776insYVMA. It counts as cell-based. To be noted: 72 hours, read-out: Ba/F3 HER2 A775-G776insYVMA IC50. Put shortly: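 Ba/F3 HER2 A775_G776insYVMA cells in RPMI1640 with 10% FBS were plated at 3000 cells/well and treated directly with compound (top 10 μM, 4-fold, 9 concentrations, duplicates).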

A further experiment deals with NCI-N87 cells. The experiment in a line: Inhibition of cell proliferation, CTG method, NCI-N87. The experiment is classed as cell-based. To be noted: Homo sapiens, 72 hours, read-out: hNCI-N87 IC50.
From the text: as §1, §2, §3
(§5) 1. The assay compound was dissolved with DMSO to form a stock solution and a gradient dilution was performed, followed by dilution with the corresponding medium to obtain a solution with 5-fold working concentration.
(§6) 2. Cells in logarithmic growth phase were adjusted to specific cell densities by dilution with culture medium, and 80 μL of cell suspension was added to a 96-well plate, such that plating densities of cells of BT474, NCI-N87, Ba/F3-EGFR-VIII, Ba/F3 HER2 A775_G776insYVMA and Ba/F3 EGFR D770_N771insSVD were all 3000 cells/well. The cells of Ba/F3-EGFR-VIII, Ba/F3 HER2 A775_G776insYVMA and Ba/F3 EGFR D770_N771insSVD were used directly in the next step (treatment with compound), whereas the BT474 and NCI-N87 needed to be cultured overnight in a 37° C., 5% carbon dioxide gas incubator to adhere to the wall, and then treated with compounds.
(§7) 3. 20 μL of compound solution was added to each well of the 96-well plate that had been inoculated with cells. The highest concentration of the assayed compound was 10 μM, 4-fold serial dilution, a total of 9 concentrations, and duplicate wells. A control group without compound was also set up.
as §4

A further experiment has as its target EGFR^WT kinase (Homo sapiens, UniProt P00533). The experiment is described as follows: EGFR^WT kinase assay (ULight/PT66 TR-FRET). The experiment is classed as biochemical. In outline: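 Enzyme preincubated 5 min with compound (11-point 3-fold series, duplicate), then ULight-JAK-1 (Tyr1023) peptide and ATP added at 4× stocks of 400 nM and 600 μM; 120 min reaction at room temperature. PT66 antibody TR-FRET read after 60 min; IC50 fitted from inhibition rates.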

For experiment [2], the target named is Ba/F3 EGFR D770_N771insSVD cells (Homo sapiens, UniProt P00533, DUP768-770, cells depend on it). The experiment in a line: Inhibition of cell proliferation, CTG method, Ba/F3 EGFR D770_N771insSVD. It counts as cell-based. The note with it: 72 hours, read-out: Ba/F3 EGFR D770_N771insSVD IC50.
Chain of Ba/F3 EGFR D770_N771insSVD cells (P00533 with tags, fused parts or gaps DUP768-770): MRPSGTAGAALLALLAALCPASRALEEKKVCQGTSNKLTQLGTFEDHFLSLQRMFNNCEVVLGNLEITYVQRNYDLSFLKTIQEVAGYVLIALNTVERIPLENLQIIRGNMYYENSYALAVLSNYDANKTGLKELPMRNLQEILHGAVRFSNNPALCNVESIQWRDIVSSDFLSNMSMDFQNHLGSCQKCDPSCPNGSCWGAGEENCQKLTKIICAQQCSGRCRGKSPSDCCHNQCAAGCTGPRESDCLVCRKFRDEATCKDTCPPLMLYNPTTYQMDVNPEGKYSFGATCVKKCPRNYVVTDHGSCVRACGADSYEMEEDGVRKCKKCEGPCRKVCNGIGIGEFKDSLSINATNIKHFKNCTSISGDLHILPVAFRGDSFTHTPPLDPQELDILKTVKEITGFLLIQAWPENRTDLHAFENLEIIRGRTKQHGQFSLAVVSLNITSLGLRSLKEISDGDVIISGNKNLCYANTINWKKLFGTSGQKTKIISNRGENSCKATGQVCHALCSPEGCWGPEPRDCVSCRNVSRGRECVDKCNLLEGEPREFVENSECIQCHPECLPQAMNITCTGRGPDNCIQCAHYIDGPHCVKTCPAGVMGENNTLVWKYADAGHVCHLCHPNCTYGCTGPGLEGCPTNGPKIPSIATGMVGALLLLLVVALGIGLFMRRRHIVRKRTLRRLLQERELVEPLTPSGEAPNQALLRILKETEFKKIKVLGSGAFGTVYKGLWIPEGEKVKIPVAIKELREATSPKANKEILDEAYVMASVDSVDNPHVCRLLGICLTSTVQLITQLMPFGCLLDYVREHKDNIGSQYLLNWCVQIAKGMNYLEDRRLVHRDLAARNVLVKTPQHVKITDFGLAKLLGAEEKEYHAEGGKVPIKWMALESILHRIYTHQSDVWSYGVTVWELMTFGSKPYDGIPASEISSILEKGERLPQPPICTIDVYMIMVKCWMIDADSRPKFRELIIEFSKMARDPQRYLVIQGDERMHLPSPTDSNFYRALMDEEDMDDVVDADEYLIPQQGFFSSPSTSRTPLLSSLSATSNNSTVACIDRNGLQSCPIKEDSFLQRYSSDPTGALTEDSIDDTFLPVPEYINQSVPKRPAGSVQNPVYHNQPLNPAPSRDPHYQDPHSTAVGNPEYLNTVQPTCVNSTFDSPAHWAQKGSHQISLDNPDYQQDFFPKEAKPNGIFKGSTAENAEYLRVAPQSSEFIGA
From the text: as §1, §2, §3, §5, §6, §7, §4

The target in the next experiment is Ba/F3-EGFR-VIII cells (Homo sapiens, UniProt P00533, DELINS30-297G, cells depend on it). The experiment in a line: Inhibition of cell proliferation, CTG method, Ba/F3-EGFR-VIII. The experiment is classed as cell-based. The note with it: 72 hours, read-out: Ba/F3 EGFRvIII IC50.
From the text: as §1, §2, §3
1. […]
as §4

The test system of experiment [3] is Ba/F3 ERBB2 A775_G776insYVMA. The experiment in a line: Efficacy in nude mouse tumor-bearing model of Ba/F3 ERBB2 A775_G776insYVMA. It counts as in vivo, BALB/c nude mice. To be noted: 30 mg/kg, QD×15, PO; day 15. The method, then: In this assay, some compounds of the application were orally administered to a nude mouse tumor-bearing model of Ba/F3 ERBB2 A775_G776insYVMA to study the effect of the compounds of the application on tumor growth.
Preparation of the assay compound: an appropriate weight of the compound to be assayed was weighed, and completely dissolved in an appropriate volume of vehicle (DMSO). The mixture was vortexed or sonicated. Then an appropriate amount of Solutol was added and mixed well. Finally, sterilized drinking water was added and the mixture was mixed by stirring or vortexing to obtain a homogeneous solution or suspension.
Method: All the assays were authorized and agreed by the Animal Welfare Committee. Ba/F3 ERBB2 A775_G776insYVMA in a logarithmic growth period was inoculated subcutaneously into the right back of immunodeficient nude mice (BALB/c nude, female, 6-7 weeks of age, body weight 18±2 g) with 4×10^6 cells/rat. After the tumor grew to 150-200 mm^3, the animals were randomly divided into a treatment group and a control group. For the treatment group, a solution of each assay compound was given, and for the control group, a vehicle solution without the assay compound was given. Both of the treatment group and the control group were administered once a day for about 2 weeks. The dose of each assay article was 30 mg/kg (in terms of effective compound concentration), and the assay compounds were all prepared freshly for use. During the assay, the diameter of loaded tumors was measured twice a week, and the mice were weighed at the same time. The tumor volume (TV) was calculated by the formula: TV=½×a×b^2, where a and b denote length and width, respectively. Relative tumor volume (RTV) was calculated based on the measured results by the formula: RTV=Vt/V0, where V0 is the tumor volume measured at grouping and administration and Vt is the tumor volume at each measurement. The evaluation index of antitumor activity was the relative tumor proliferation rate T/C (%) calculated by the formula: T/C (%)=(TRTV/CRTV)×100%, TRTV: RTV of the administration group; CRTV: RTV of the control group. T and C denote the average tumor volume at a certain time point in the administration group and the control group, respectively.

One may read the IC50 as the concentration that gives 50% inhibition.

Chain of EGFR^WT kinase (P00533 25-1210): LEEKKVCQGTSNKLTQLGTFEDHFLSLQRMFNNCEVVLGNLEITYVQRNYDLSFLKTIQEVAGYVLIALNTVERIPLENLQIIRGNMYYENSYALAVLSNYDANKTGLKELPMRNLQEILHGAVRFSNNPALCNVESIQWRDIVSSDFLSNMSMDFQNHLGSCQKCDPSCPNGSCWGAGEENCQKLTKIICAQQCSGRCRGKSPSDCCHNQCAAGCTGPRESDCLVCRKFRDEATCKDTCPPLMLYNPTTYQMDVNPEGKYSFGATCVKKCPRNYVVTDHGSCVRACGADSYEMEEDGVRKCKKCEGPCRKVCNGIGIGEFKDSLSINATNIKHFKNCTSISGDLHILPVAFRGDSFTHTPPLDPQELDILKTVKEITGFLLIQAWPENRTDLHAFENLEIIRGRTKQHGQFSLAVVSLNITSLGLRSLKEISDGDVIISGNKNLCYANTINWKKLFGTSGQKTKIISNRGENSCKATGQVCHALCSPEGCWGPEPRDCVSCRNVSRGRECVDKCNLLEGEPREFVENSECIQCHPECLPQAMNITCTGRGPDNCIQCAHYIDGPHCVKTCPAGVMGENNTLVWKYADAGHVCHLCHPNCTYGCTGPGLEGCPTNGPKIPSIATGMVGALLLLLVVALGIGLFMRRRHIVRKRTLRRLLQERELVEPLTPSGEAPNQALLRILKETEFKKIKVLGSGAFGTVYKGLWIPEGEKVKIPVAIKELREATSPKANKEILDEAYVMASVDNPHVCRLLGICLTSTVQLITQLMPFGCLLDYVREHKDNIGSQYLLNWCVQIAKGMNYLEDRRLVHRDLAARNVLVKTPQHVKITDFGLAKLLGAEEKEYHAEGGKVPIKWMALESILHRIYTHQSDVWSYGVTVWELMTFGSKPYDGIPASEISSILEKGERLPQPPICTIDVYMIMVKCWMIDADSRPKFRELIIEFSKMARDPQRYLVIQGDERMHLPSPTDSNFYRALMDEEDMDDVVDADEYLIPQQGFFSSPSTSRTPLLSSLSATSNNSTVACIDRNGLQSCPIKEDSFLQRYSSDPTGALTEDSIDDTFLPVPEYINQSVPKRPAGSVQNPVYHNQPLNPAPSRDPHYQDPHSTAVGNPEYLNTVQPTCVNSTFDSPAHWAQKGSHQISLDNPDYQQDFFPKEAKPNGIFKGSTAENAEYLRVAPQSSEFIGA
Chain of Ba/F3 HER2 A775_G776insYVMA cells (P04626 with tags, fused parts or gaps DUP772-775): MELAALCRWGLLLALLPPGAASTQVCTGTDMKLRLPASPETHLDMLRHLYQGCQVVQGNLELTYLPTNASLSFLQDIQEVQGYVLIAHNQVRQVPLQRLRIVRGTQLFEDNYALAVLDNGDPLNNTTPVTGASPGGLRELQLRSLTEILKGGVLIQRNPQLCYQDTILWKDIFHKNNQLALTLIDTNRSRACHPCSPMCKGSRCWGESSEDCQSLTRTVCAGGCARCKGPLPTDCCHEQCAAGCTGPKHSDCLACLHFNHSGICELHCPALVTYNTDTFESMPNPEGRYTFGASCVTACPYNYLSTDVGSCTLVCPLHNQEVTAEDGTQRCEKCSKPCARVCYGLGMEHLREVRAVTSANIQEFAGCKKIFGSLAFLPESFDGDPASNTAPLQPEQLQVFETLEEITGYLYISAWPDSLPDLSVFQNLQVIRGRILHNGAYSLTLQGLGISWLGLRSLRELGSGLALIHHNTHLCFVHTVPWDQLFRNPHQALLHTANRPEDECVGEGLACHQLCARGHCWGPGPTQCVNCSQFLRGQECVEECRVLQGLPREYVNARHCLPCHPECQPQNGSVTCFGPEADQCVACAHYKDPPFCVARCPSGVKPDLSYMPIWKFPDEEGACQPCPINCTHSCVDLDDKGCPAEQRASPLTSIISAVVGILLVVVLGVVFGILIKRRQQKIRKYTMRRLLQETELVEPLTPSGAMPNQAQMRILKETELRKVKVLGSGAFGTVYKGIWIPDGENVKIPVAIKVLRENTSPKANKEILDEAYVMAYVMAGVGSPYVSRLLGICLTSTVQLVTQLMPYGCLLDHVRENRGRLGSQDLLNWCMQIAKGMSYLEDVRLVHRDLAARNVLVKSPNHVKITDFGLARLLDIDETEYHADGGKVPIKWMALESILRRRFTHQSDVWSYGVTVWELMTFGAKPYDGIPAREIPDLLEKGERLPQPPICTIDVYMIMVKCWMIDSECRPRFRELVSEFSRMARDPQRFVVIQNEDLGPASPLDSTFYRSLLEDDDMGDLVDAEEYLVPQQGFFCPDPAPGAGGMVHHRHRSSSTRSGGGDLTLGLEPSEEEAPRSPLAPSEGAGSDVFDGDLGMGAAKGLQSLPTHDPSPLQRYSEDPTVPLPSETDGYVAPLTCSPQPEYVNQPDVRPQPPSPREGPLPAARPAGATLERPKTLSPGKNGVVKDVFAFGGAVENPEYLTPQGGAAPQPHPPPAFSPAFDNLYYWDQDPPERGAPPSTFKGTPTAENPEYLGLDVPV
T1 sequence (P04626 23-1255): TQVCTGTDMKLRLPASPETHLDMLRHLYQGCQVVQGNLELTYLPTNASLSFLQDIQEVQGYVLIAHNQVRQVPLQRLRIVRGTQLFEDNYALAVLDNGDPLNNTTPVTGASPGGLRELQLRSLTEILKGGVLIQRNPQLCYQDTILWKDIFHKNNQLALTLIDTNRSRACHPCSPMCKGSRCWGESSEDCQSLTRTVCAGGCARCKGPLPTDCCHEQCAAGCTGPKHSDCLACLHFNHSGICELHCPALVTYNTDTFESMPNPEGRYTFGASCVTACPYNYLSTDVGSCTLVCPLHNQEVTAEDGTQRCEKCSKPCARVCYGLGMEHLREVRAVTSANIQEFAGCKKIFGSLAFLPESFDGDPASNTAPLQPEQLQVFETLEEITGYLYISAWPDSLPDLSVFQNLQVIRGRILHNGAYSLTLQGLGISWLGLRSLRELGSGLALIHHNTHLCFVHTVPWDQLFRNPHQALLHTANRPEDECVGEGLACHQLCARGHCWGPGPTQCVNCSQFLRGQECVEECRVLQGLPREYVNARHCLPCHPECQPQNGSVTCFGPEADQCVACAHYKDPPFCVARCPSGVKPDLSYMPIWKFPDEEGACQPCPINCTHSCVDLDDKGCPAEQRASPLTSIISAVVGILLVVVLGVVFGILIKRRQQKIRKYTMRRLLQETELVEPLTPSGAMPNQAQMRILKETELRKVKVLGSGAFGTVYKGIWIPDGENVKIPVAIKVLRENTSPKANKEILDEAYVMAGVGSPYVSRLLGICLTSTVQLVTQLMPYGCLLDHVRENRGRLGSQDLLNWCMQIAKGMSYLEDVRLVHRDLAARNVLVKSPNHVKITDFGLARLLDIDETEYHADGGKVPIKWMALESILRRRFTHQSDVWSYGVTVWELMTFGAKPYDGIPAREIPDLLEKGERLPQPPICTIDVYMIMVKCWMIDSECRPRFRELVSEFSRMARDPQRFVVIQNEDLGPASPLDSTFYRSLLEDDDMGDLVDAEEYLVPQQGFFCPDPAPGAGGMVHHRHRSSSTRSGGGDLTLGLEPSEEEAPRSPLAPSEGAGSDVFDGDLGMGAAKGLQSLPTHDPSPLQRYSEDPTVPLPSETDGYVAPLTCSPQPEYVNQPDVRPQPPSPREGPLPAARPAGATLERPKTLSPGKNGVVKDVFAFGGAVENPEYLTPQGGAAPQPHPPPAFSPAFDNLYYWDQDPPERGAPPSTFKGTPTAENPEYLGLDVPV

Regarding `CCOc1c(NC(=O)/C=C/[C@H]2CCCN2C)ccc2ncnc(Nc3ccc(OCc4ccccn4)c(Cl)c3)c12` [Example 5, (R,E)-N-(4-((3-chloro-4-(pyridin-2-ylmethoxy)phenyl)amino)-5-ethoxyquinazolin-6-yl)-3-(1-methylpyrrolidin-2-yl)acrylamide], the IC50 is 10 to 100 nM in the experiment on BT474 cells, less than 10 nM on HER2 kinase, 1 to 5 nM with NCI-N87 cells and 10 to 100 nM against EGFR^WT kinase. The GI50 in experiment [1] is less than 1 nM.

Regarding `COc1c(NC(=O)/C=C/CN(C)C)ccc2ncnc(Nc3ccc(OCc4cccc(F)c4)c(Cl)c3)c12` [Example 2, (E)-N-(4-((3-chloro-4-(3-fluorobenzyloxy)phenyl)amino)-5-methoxyquinazolin-6-yl)-4-(dimethylamino)but-2-enamide], the IC50 against HER2 kinase was less than 10 nM; in the experiment on NCI-N87 cells it was 1 to 5 nM; on EGFR^WT kinase, less than 10 nM. Further, the figures for the GI50 in experiment [1] and in experiment [2] were 1 to 5 nM and 10 to 100 nM, respectively.

Take `CN1CCC[C@@H]1/C=C/C(=O)Nc1ccc2ncnc(Nc3ccc(OCc4ccccn4)c(Cl)c3)c2c1OCCCO` [Example 17, (R,E)-N-(4-((3-chloro-4-(pyridin-2-ylmethoxy)phenyl)amino)-5-(3-hydroxypropoxy)quinazolin-6-yl)-3-(1-methylpyrrolidin-2-yl)acrylamide]: the IC50 at HER2 kinase and at EGFR^WT kinase was less than 10 nM throughout. The GI50 in experiment [1] is 1 to 5 nM; in experiment [2], 10 to 100 nM.

On to `COCCN1CCC[C@@H]1/C=C/C(=O)Nc1ccc2ncnc(Nc3ccc(OCc4cccc(F)c4)c(Cl)c3)c2c1OC` [Example 26], for which the IC50 against HER2 kinase is less than 10 nM; against EGFR^WT kinase, 10 to 100 nM. The GI50 in experiment [1] lay within 1 to 5 nM; in experiment [2], 10 to 100 nM.

Regarding `CCN1CCC[C@@H]1/C=C/C(=O)Nc1ccc2ncnc(Nc3ccc(OCc4cccc(F)c4)c(Cl)c3)c2c1OC` [Example 28, (R,E)-N-(4-((3-chloro-4-(3-fluorobenzyloxy)phenyl)amino)-5-methoxyquinazolin-6-yl)-3-(1-ethylpyrrolidin-2-yl)acrylamide], the IC50 at HER2 kinase and against EGFR^WT kinase was less than 10 nM each time. For the same molecule, the GI50 was 1 to 5 nM in experiment [1] and 10 to 100 nM in experiment [2].

For `CN1CCC[C@@H]1/C=C/C(=O)Nc1ccc2ncnc(Nc3ccc(OCc4ccccn4)c(Cl)c3)c2c1OCCO` [Example 6, (R,E)-N-(4-((3-chloro-4-(pyridin-2-ylmethoxy)phenyl)amino)-5-(2-hydroxyethoxy)quinazolin-6-yl)-3-(1-methylpyrrolidin-2-yl)acrylamide], the IC50 against HER2 kinase and at EGFR^WT kinase was less than 10 nM throughout. For the same molecule, the GI50 fell in the range of 1 to 5 nM in experiment [1] and 5 to 10 nM in experiment [2].

In the case of `CN1CCC[C@@H]1/C=C/C(=O)Nc1ccc2ncnc(Nc3ccc(OCc4ccccn4)c(Cl)c3)c2c1OCC(C)(C)O` [Example 15, (R,E)-N-(4-((3-chloro-4-(pyridin-2-ylmethoxy)phenyl)amino)-5-(2-hydroxy-2-methylpropoxy)quinazolin-6-yl)-3-(1-methylpyrrolidin-2-yl)acrylamide], the IC50 against HER2 kinase and on EGFR^WT kinase was less than 10 nM in each case. In addition, the GI50 fell in the range of 1 to 5 nM in experiment [1] and 10 to 100 nM in experiment [2].

As for `COc1c(NC(=O)/C=C/CN(C)C)ccc2ncnc(Nc3ccc(OCc4ccccn4)c(Cl)c3)c12` [Example 1, (E)-N-(4-((3-chloro-4-(pyridin-2-ylmethoxy)phenyl)amino)-5-methoxyquinazolin-6-yl)-4-(dimethylamino)but-2-enamide], the IC50 at HER2 kinase was less than 10 nM; in the experiment on NCI-N87 cells, 1 to 5 nM; at EGFR^WT kinase, less than 10 nM. The GI50 (in experiment [1]; on Ba/F3-EGFR-VIII cells) was 1 to 5 nM each time.

Consider `COCCOc1c(NC(=O)/C=C/[C@H]2CCCN2C)ccc2ncnc(Nc3ccc(OCc4ccccn4)c(Cl)c3)c12` [Example 8, (R,E)-N-(4-((3-chloro-4-(pyridin-2-ylmethoxy)phenyl)amino)-5-(2-methoxyethoxy)quinazolin-6-yl)-3-(1-methylpyrrolidin-2-yl)acrylamide], for which the IC50 at HER2 kinase and on EGFR^WT kinase was less than 10 nM in each case. The GI50 in experiment [1] fell in the range of 1 to 5 nM; in experiment [2] it was 10 to 100 nM. In addition, the “T/C (%)” value in experiment [3] is on record as 5.83%.

Take `CN1CCC[C@@H]1/C=C/C(=O)Nc1ccc2ncnc(Nc3ccc(OCc4ccccn4)c(Cl)c3)c2c1OCCCF` [Example 10, (R,E)-N-(4-((3-chloro-4-(pyridin-2-ylmethoxy)phenyl)amino)-5-(3-fluoropropoxy)quinazolin-6-yl)-3-(1-methylpyrrolidin-2-yl)acrylamide]: the IC50 against HER2 kinase and on EGFR^WT kinase was less than 10 nM each time. Also, the GI50 in experiment [1] was in the range of 1 to 5 nM; in experiment [2] it was 10 to 100 nM.
